System: HCV Genotype 1B replicon cells
Type: cell-based
Settings: Table 3; cytotoxicity, cell titer glo
Excerpt: The genotype 1a replicon contains several adaptive mutations (NS4B Q31H, NS5A K68R, NS5A S232I), the luciferase gene and encodes for neomycin resistance. The genotype 1b replicon, also referred to as the ET replicon, is stably transfected with RNA transcripts harboring a I389luc-ubi-neo/NS3-3′/ET replicon with firefly luciferase-ubiquitin-neomycin phosphotransferase fusion protein and EMCV-IRES driven NS3-5B polyprotein containing the cell culture adaptive mutations (E1202G; T1280I; K1846T) See, Kreiger, et al., Journal of Virology 75:4614-4624 (2001). Both cell lines were grown in DMEM, supplemented with 10% fetal calf serum, 2 mM Glutamine, Penicillin (100 IU/mL)/Streptomycin (100 μg/mL), 1× nonessential amino acids, and 250 μg/mL G418 (“Geneticin”). They were all available through Life Technologies (Bethesda, Md.). The cells were plated at 0.5×10^4 cells/well in 384 well plates containing compounds. The final concentration of compounds ranged between 0.1 nM to 50 μM and the final DMSO concentration of 0.5%.
Luciferase activity was measured 48 hours later by adding a Steady glo (Promega, Madison, Wis.). Percent inhibition of replication data was plotted relative to no compound control. Under the same condition, cytotoxicity of the compounds was determined using cell titer glo (Promega, Madison, Wis.). EC50 values were determined from a 10 point dose response curve using 2-4 fold serial dilutions for each compound, which spans a concentration range of at least a 1000 fold. Replicon EC50 values, the concentration of compound required to inhibit 50% of the assay response, were calculated by curve fitting data to the Hill equation, using a non-linear least-squares curve-fitting program. The software tested the data for quality and rejected compounds with high and low activity before fitting the equation below.

Compound	CC50
O=C(OCCOCCO)C(c1cc(-c2ccc(C3CC3)cc2C(F)(F)F)no1)n1cc2nc(-c3cccc(F)c3F)nc-2cn1 (stereo not shown) [Compound 179, 2-[(2-hydroxyethyl)oxy]ethyl {3-[4-cyclopropyl-2-(trifluoromethyl)phenyl]-5-isoxazolyl}[2-(2,3-difluorophenyl)-5H-imidazo[4,5-d]pyridazin-5-yl]acetate]	50 µM
COC(=O)C(c1cc(-c2ccc(C3CC3)cc2C(F)(F)F)no1)n1cc2nc(-c3cccc(F)c3F)nc-2cn1 (stereo not shown) [Compound 178, Methyl {3-[4-cyclopropyl-2-(trifluoromethyl)phenyl]-5-isoxazolyl}[2-(2,3-difluorophenyl)-5H-imidazo[4,5-d]pyridazin-5-yl]acetate]	25 µM
O=C(OCCCO)C(c1cc(-c2ccc(C3CC3)cc2C(F)(F)F)no1)n1cc2nc(-c3cccc(F)c3F)nc-2cn1 (stereo not shown) [Compound 182, 3-Hydroxypropyl {3-[4-cyclopropyl-2-(trifluoromethyl)phenyl]-5-isoxazolyl}[2-(2,3-difluorophenyl)-5H-imidazo[4,5-d]pyridazin-5-yl]acetate]	> 50 µM
CCCOC(=O)C(c1cc(-c2ccc(C3CC3)cc2C(F)(F)F)no1)n1cc2nc(-c3cccc(F)c3F)nc-2cn1 (stereo not shown) [Compound 184, Propyl {3-[4-cyclopropyl-2-(trifluoromethyl)phenyl]-5-isoxazolyl}[2-(2,3-difluorophenyl)-5H-imidazo[4,5-d]pyridazin-5-yl]acetate]	25 µM

Reference: patent US20110053892A1, “Imidazo[4,5-d]Pyridazine Compounds For Treating Viral Infections” (priority 2009, published 2011)
